# Data reported in US12673954B2 (BRISTOL-MYERS SQUIBB COMPANY, priority 2021, dated 2026).
# Like-named read-outs stand apart in the source and are kept apart here.
# What was measured:
# [1] = test system: IRF pathway, THP1-Dual™ cells; experiment: STING reporter assay in THP1-Dual cells, IRF pathway (Lucia luciferase, QUANTI-Luc); format: cell-based, human; conditions: THP1-Dual cells, 10% human plasma, 20 hours, Lucia luciferase, 100% activation = 100 μM cGAMP, read-out: IRF (EC50 μM)
# Summary of the method: (§1)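 THP-1-derived dual-reporter cells treated with serially diluted compounds (final top concentration 100 μM) for 20 h at 37° C. NF-κB read as SEAP via QUANTI-Blue at OD620; IRF read as Lucia luminescence via QUANTI-Luc after 5 min. 100% activation set by 100 μM cGAMP, baseline by DMSO.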
# [2] = test system: NF-κB pathway, THP1-Dual™ cells; experiment: STING reporter assay in THP1-Dual cells, NF-κB pathway (SEAP, QUANTI-Blue); format: cell-based, human; conditions: THP1-Dual cells, 10% human plasma, 20 hours, SEAP, 100% activation = 100 μM cGAMP, read-out: NFkB (EC50 μM)
# Summary of the method: as §1
SMILES,"EC50 ([1]; Homo sapiens, THP1-Dual, 20 h) [µM]","EC50 ([2]; Homo sapiens, THP1-Dual, 20 h) [µM]",EC50 [1] [µM],EC50 [2] [µM]
"O=C(OCC(F)(F)F)c1c(F)ccc2cc(CNC(=O)c3cnn4cccnc34)oc12 [EXAMPLE 286, 2,2,2-Trifluoroethyl 6-fluoro-2-((pyrazolo[1,5-a]pyrimidine-3-carboxamido)methyl)benzofuran-7-carboxylate]",2.7,2.5,–,–
"Cc1ccc2cc(CNC(=O)c3cnn4cccnc34)oc2c1C(=O)OCC(F)(F)F [EXAMPLE 287, 2,2,2-Trifluoroethyl 6-methyl-2-((pyrazolo[1,5-a]pyrimidine-3-carboxamido)methyl)benzofuran-7-carboxylate]",12,18,–,–
"C[C@@H](OC(=O)c1cc(F)cc2c(Cl)c(CNC(=O)c3cnn4cccnc34)oc12)C(F)(F)F [EXAMPLE 288, (R)-1,1,1-Trifluoropropan-2-yl 3-chloro-5-fluoro-2-((pyrazolo[1,5-a]pyrimidine-3-carboxamido)methyl)benzofuran-7-carboxylate]",0.36,0.36,–,–
"C[C@H](OC(=O)c1cc(F)cc2c(Cl)c(CNC(=O)c3cnn4cccnc34)oc12)C(F)(F)F [EXAMPLE 289, (S)-1,1,1-Trifluoropropan-2-yl 3-chloro-5-fluoro-2-((pyrazolo[1,5-a]pyrimidine-3-carboxamido)methyl)benzofuran-7-carboxylate]",0.62,0.71,–,–
"O=C(OC(CF)CF)c1cc(F)cc2c(Cl)c(CNC(=O)c3cnn4cccnc34)oc12 [EXAMPLE 290, 1,3-Difluoropropan-2-yl 3-chloro-5-fluoro-2-((pyrazolo[1,5-a]pyrimidine-3-carboxamido)methyl)benzofuran-7-carboxylate]",0.25,0.35,–,–
"O=C(OC1CC(F)(F)C1)c1cc(F)cc2c(Cl)c(CNC(=O)c3cnn4cccnc34)oc12 [EXAMPLE 291, 3,3-Difluorocyclobutyl 3-chloro-5-fluoro-2-((pyrazolo[1,5-a]pyrimidine-3-carboxamido)methyl)benzofuran-7-carboxylate]",0.34,0.31,–,–
"C[C@H](NC(=O)c1cnn2cccnc12)c1oc2c(C(=O)OCC(F)(F)F)cc(F)cc2c1Cl [EXAMPLE 292, 2,2,2-Trifluoroethyl (S)-3-chloro-5-fluoro-2-(1-(pyrazolo[1,5-a]pyrimidine-3-carboxamido)ethyl)benzofuran-7-carboxylate]",1.7,1.1,–,–
"C[C@H](NC(=O)c1cnn2cccnc12)c1oc2c(C(=O)O[C@H](C)C(F)(F)F)cc(F)cc2c1Cl [EXAMPLE 293, (R)-1,1,1-Trifluoropropan-2-yl 3-chloro-5-fluoro-2-((S)-1-(pyrazolo[1,5-a]pyrimidine-3-carboxamido)ethyl)benzofuran-7-carboxylate]",4.4,3.8,–,–
"O=C(OCC(F)(F)F)c1cc(Cl)cc2c(Cl)c(CNC(=O)c3cnn4cccnc34)oc12 [EXAMPLE 294, 2,2,2-Trifluoroethyl 3,5-dichloro-2-((pyrazolo[1,5-a]pyrimidine-3-carboxamido)methyl)benzofuran-7-carboxylate]",0.8,0.93,–,–
"C[C@@H](OC(=O)c1cc(Cl)cc2c(Cl)c(CNC(=O)c3cnn4cccnc34)oc12)C(F)(F)F [EXAMPLE 295, (R)-1,1,1-Trifluoropropan-2-yl 3,5-dichloro-2-((pyrazolo[1,5-a]pyrimidine-3-carboxamido)methyl)benzofuran-7-carboxylate]",1.1,0.56,–,–
"C[C@H](NC(=O)c1cnn2cccnc12)c1oc2c(C(=O)O[C@H](C)C(F)(F)F)cc(Cl)cc2c1Cl [EXAMPLE 296, (R)-1,1,1-Trifluoropropan-2-yl 3,5-dichloro-2-((S)-1-(pyrazolo[1,5-a]pyrimidine-3-carboxamido)ethyl)benzofuran-7-carboxylate]",5.7,4.6,–,–
"C[C@H](NC(=O)c1cnn2cccnc12)c1oc2c(C(=O)OCC(F)(F)F)cc(Cl)cc2c1Cl [EXAMPLE 297, 2,2,2-Trifluoroethyl (S)-3,5-dichloro-2-(1-(pyrazolo[1,5-a]pyrimidine-3-carboxamido)ethyl)benzofuran-7-carboxylate]",3.1,3.2,–,–
"C[C@H](NC(=O)c1cnn2cccnc12)c1oc2c(C(=O)OC3COC3)cc(Cl)cc2c1Cl [EXAMPLE 298, Oxetan-3-yl (S)-3,5-dichloro-2-(1-(pyrazolo[1,5-a]pyrimidine-3-carboxamido)ethyl)benzofuran-7-carboxylate]",3.6,3.3,–,–
"Cc1cc(C(=O)OCC(F)(F)F)c2oc(CNC(=O)c3cnn4cccnc34)c(Cl)c2c1 [EXAMPLE 299, 2,2,2-Trifluoroethyl 3-chloro-5-methyl-2-((pyrazolo[1,5-a]pyrimidine-3-carboxamido)methyl)benzofuran-7-carboxylate]",0.28,0.33,–,–
"Cc1cc(C(=O)O[C@H](C)C(F)(F)F)c2oc(CNC(=O)c3cnn4cccnc34)c(Cl)c2c1 [EXAMPLE 300, (R)-1,1,1-Trifluoropropan-2-yl 3-chloro-5-methyl-2-((pyrazolo[1,5-a]pyrimidine-3-carboxamido)methyl)benzofuran-7-carboxylate]",0.76,0.71,–,–

# More lines, now with the values ahead:
"EC50 ([1]; Homo sapiens, THP1-Dual, 20 h) [µM]","EC50 ([2]; Homo sapiens, THP1-Dual, 20 h) [µM]",EC50 [1] [µM],EC50 [2] [µM],SMILES
2.1,2.7,–,–,"Cc1cc(C(=O)O[C@@H](C)C(F)(F)F)c2oc(CNC(=O)c3cnn4cccnc34)c(Cl)c2c1 [EXAMPLE 301, (S)-1,1,1-Trifluoropropan-2-yl 3-chloro-5-methyl-2-((pyrazolo[1,5-a]pyrimidine-3-carboxamido)methyl)benzofuran-7-carboxylate]"
0.43,0.52,–,–,"Cc1cc(C(=O)OC(CF)CF)c2oc(CNC(=O)c3cnn4cccnc34)c(Cl)c2c1 [EXAMPLE 302, 1,3-Difluoropropan-2-yl 3-chloro-5-methyl-2-((pyrazolo[1,5-a]pyrimidine-3-carboxamido)methyl)benzofuran-7-carboxylate]"
0.53,0.58,–,–,"Cc1cc(C(=O)OC2CC(F)(F)C2)c2oc(CNC(=O)c3cnn4cccnc34)c(Cl)c2c1 [EXAMPLE 303, 3,3-Difluorocyclobutyl 3-chloro-5-methyl-2-((pyrazolo[1,5-a]pyrimidine-3-carboxamido)methyl)benzofuran-7-carboxylate]"
7.6,8.3,–,–,"Cc1cc(C(=O)O[C@H](C)C(F)(F)F)c2oc(C(C)NC(=O)c3cnn4cccnc34)c(Cl)c2c1 (stereo partly drawn) [EXAMPLE 304, (R)-1,1,1-Trifluoropropan-2-yl 3-chloro-5-methyl-2-(1-(pyrazolo[1,5-a]pyrimidine-3-carboxamido)ethyl)benzofuran-7-carboxylate]"
5,3.9,–,–,"CC(NC(=O)c1cnn2cccnc12)c1cc2cc(F)cc(C(=O)O[C@@H](C)C(F)(F)F)c2o1 (stereo partly drawn) [EXAMPLE 305, (S)-1,1,1-Trifluoropropan-2-yl 5-fluoro-2-(1-(pyrazolo[1,5-a]pyrimidine-3-carboxamido)ethyl)benzofuran-7-carboxylate]"
1.3,1.3,–,–,"CC(NC(=O)c1cnn2cccnc12)c1cc2cc(F)cc(C(=O)OC3CC(F)(F)C3)c2o1 (centres unmarked) [EXAMPLE 306, 3,3-Difluorocyclobutyl 5-fluoro-2-(1-(pyrazolo[1,5-a]pyrimidine-3-carboxamido)ethyl)benzofuran-7-carboxylate]"
–,–,2,2.3,"CC(OC(=O)c1ccc(Cl)c2cc(CNC(=O)c3cnn4cccnc34)oc12)C(F)(F)F (centres unmarked) [EXAMPLE 311, 1,1,1-Trifluoropropan-2-yl 4-chloro-2-((pyrazolo[1,5-a]pyrimidine-3-carboxamido)methyl)benzofuran-7-carboxylate]"
–,–,21,56,"CC(OC(=O)c1ccc(Cl)c2cc(CNC(=O)c3cnn4cccnc34)oc12)C(F)(F)F (centres unmarked) [EXAMPLE 312, 1,1,1-Trifluoropropan-2-yl 4-chloro-2-((pyrazolo[1,5-a]pyrimidine-3-carboxamido)methyl)benzofuran-7-carboxylate]"
–,–,1.7,1.4,"CC(NC(=O)c1cnn2cccnc12)c1cc2cc(F)cc(C(=O)O[C@H](C)C(F)(F)F)c2o1 (stereo partly drawn) [EXAMPLE 325, (R)-1,1,1-Trifluoropropan-2-yl 5-fluoro-2-(1-(pyrazolo[1,5-a]pyrimidine-3-carboxamido)ethyl)benzofuran-7-carboxylate]"
–,–,74,> 100,"CC(NC(=O)c1cnn2cccnc12)c1cc2cc(F)cc(C(=O)O[C@H](C)C(F)(F)F)c2o1 (stereo partly drawn) [EXAMPLE 326, (R)-1,1,1-Trifluoropropan-2-yl 5-fluoro-2-(1-(pyrazolo[1,5-a]pyrimidine-3-carboxamido)ethyl)benzofuran-7-carboxylate]"
–,–,9.8,13,"CC(OC(=O)c1cc(Cl)cc2cc(CN3CCc4ccncc4C3=O)oc12)C(F)(F)F (centres unmarked) [EXAMPLE 337, 1,1,1-Trifluoropropan-2-yl 5-chloro-2-((1-oxo-3,4-dihydro-2,7-naphthyridin-2(1H)-yl)methyl)benzofuran-7-carboxylate]"
–,–,46,48,"CC(OC(=O)c1cc(Cl)cc2cc(CN3CCc4ccncc4C3=O)oc12)C(F)(F)F (centres unmarked) [EXAMPLE 338, 1,1,1-Trifluoropropan-2-yl 5-chloro-2-((1-oxo-3,4-dihydro-2,7-naphthyridin-2(1H)-yl)methyl)benzofuran-7-carboxylate]"
10,18,–,–,"[2H]C([2H])([2H])OC(=O)c1cccc2cc(CN3CCc4ccncc4C3=O)oc12 [EXAMPLE 353, Methyl-D3 2-((1-oxo-3,4-dihydro-2,7-naphthyridin-2(1H)-yl)methyl)benzofuran-7-carboxylate]"
